Reference: US12077503B2, “Substituted cyclic amides and their use as herbicides” (FMC CORPORATION, priority 2015, dated 2024)

Assays:
Assay in all cases: Test G Post-Emergence Protocol
Type in all cases: in vivo
[1] = system: giant foxtail (Setaria faberi); conditions: Setaria faberi, post-emergence, 312 h; for pest or weed control at 15.625 g/ha: 15.625 g ai/ha, evaluated after 13 days (100=total damage to plant; 0=no damage to plant), read-out: Foxtail, Giant damage rating; for pest or weed control at 62.5 g/ha: 62.5 g ai/ha, read-out: Foxtail, Giant damage rating (100=total damage to plant; 0=no damage to plant); for pest or weed control at 62.5 g/ha / pest or weed control at 250 g/ha: evaluated after 13 days; for pest or weed control at 250 g/ha: 250 g ai/ha, read-out: damage to plant, Foxtail, Giant (100=total damage to plant; 0=no damage to plant)
Procedure, shortened: (§1)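 Foliar application was made 8 days after sowing, using an aqueous spray of the active in acetone/water (50:50) with 0.5% Tween 20, at doses of 15.625, 62.5 or 250 g/ha. Injury was assessed 13 days later, where 100 meant the plant was fully damaged.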

[2] = system: barnyardgrass (Echinochloa crus-galli); conditions: Echinochloa crus-galli, post-emergence, 312 h; for pest or weed control at 15.625 g/ha: 15.625 g ai/ha, evaluated after 13 days (100=total damage to plant; 0=no damage to plant), read-out: Barnyardgrass damage rating; for pest or weed control at 62.5 g/ha: 62.5 g ai/ha, read-out: Barnyardgrass damage rating (100=total damage to plant; 0=no damage to plant); for pest or weed control at 62.5 g/ha / pest or weed control at 250 g/ha: evaluated after 13 days; for pest or weed control at 250 g/ha: 250 g ai/ha, read-out: damage to plant, Barnyardgrass (100=total damage to plant; 0=no damage to plant)
Procedure, shortened: as §1

corn (Zea mays) = conditions: Zea mays, post-emergence, 312 h; for plant injury at 15.625 g/ha: 15.625 g ai/ha, evaluated after 13 days (100=total damage to plant; 0=no damage to plant), read-out: Corn damage rating; for plant injury at 62.5 g/ha: 62.5 g ai/ha, read-out: Corn damage rating (100=total damage to plant; 0=no damage to plant); for plant injury at 62.5 g/ha / plant injury at 250 g/ha: evaluated after 13 days; for plant injury at 250 g/ha: 250 g ai/ha, read-out: damage to plant, Corn (100=total damage to plant; 0=no damage to plant)
Procedure, shortened: as §1

[3] = system: ivy-leaved morning glory (Ipomoea hederacea); conditions: Ipomoea, post-emergence, 312 h; for pest or weed control at 15.625 g/ha: 15.625 g ai/ha, evaluated after 13 days (100=total damage to plant; 0=no damage to plant), read-out: Morningglory, Ivy-leaved damage rating; for pest or weed control at 62.5 g/ha: 62.5 g ai/ha, read-out: Morningglory, Ivy-leaved damage rating (100=total damage to plant; 0=no damage to plant); for pest or weed control at 62.5 g/ha / pest or weed control at 250 g/ha: evaluated after 13 days; for pest or weed control at 250 g/ha: 250 g ai/ha, read-out: damage to plant, Morningglory, Ivy-leaved (100=total damage to plant; 0=no damage to plant)
Procedure, shortened: as §1

[4] = system: redroot pigweed (Amaranthus retroflexus); conditions: Amaranthus retroflexus, post-emergence, 312 h; for pest or weed control at 15.625 g/ha: 15.625 g ai/ha, evaluated after 13 days (100=total damage to plant; 0=no damage to plant), read-out: Pigweed, Redroot damage rating; for pest or weed control at 62.5 g/ha: 62.5 g ai/ha, read-out: Pigweed, Redroot damage rating (100=total damage to plant; 0=no damage to plant); for pest or weed control at 62.5 g/ha / pest or weed control at 250 g/ha: evaluated after 13 days; for pest or weed control at 250 g/ha: 250 g ai/ha, read-out: damage to plant, Pigweed, Redroot (100=total damage to plant; 0=no damage to plant)
Procedure, shortened: as §1

[5] = system: velvetleaf (Abutilon theophrasti); conditions: Abutilon theophrasti, post-emergence, 312 h; for pest or weed control at 15.625 g/ha: 15.625 g ai/ha, evaluated after 13 days (100=total damage to plant; 0=no damage to plant), read-out: Velvetleaf damage rating; for pest or weed control at 62.5 g/ha: 62.5 g ai/ha, read-out: Velvetleaf damage rating (100=total damage to plant; 0=no damage to plant); for pest or weed control at 62.5 g/ha / pest or weed control at 250 g/ha: evaluated after 13 days; for pest or weed control at 250 g/ha: 250 g ai/ha, read-out: damage to plant, Velvetleaf (100=total damage to plant; 0=no damage to plant)
Procedure, shortened: as §1

SMILES | pest or weed control at 15.625 g/ha [1] [%] | pest or weed control at 62.5 g/ha [1] [%] | pest or weed control at 250 g/ha [1] [%] | pest or weed control at 15.625 g/ha [2] [%] | pest or weed control at 62.5 g/ha [2] [%] | pest or weed control at 250 g/ha [2] [%] | plant injury at 15.625 g/ha (corn (Zea mays)) [%] | plant injury at 62.5 g/ha (corn (Zea mays)) [%] | plant injury at 250 g/ha (corn (Zea mays)) [%] | pest or weed control at 15.625 g/ha [3] [%] | pest or weed control at 62.5 g/ha [3] [%] | pest or weed control at 250 g/ha [3] [%] | pest or weed control at 15.625 g/ha [4] [%] | pest or weed control at 62.5 g/ha [4] [%] | pest or weed control at 250 g/ha [4] [%] | pest or weed control at 15.625 g/ha [5] [%] | pest or weed control at 62.5 g/ha [5] [%] | pest or weed control at 250 g/ha [5] [%]
CN1C[C@@H](c2ccc(C(F)(F)F)cc2)[C@H](C(=O)Nc2ccccc2)C1=O (racemic) [Compound 1404] | 0 | 50 | 70 | 10 | 20 | 40 | 20 | 20 | 40 | 0 | 10 | 30 | 20 | 40 | 30 | 10 | 20 | 20
CN1C[C@H](c2ccc3c(c2)CCO3)[C@@H](C(=O)Nc2cccc(F)c2F)C1=O (racemic) [Compound 1499] | 60 | 60 | 70 | 50 | 60 | 60 | 10 | 0 | 80 | 20 | 0 | 40 | 0 | 0 | 0 | 0 | 0 | 20
CN1C[C@H](c2ccc3occc3c2)[C@@H](C(=O)Nc2cccc(F)c2F)C1=O (racemic) [Compound 1500] | 40 | 60 | 60 | 10 | 60 | 60 | 10 | 10 | 60 | 0 | 0 | 10 | 0 | 0 | 0 | 0 | 0 | 20
Cc1c(NC(=O)[C@@H]2C(=O)N(C)C[C@H]2c2ccc(C(F)(F)F)cc2)ccc(F)c1F (racemic) [Compound 1502] | 60 | 80 | 80 | 20 | 60 | 70 | 0 | 30 | 60 | 0 | 0 | 20 | 20 | 30 | 80 | 0 | 10 | 40
Cc1ccncc1NC(=O)[C@@H]1C(=O)N(C)C[C@H]1c1ccc(C(F)(F)F)cc1 (racemic) [Compound 1505] | 0 | 0 | 30 | 0 | 0 | 20 | 0 | 10 | 10 | 0 | 0 | 10 | 0 | 0 | 0 | 0 | 0 | 0
CN1C[C@@H](c2ccc(C(F)(F)F)cc2)[C@H](C(=O)Nc2cc(C(F)(F)F)nn2C)C1=O (racemic) [Compound 1510] | 0 | 0 | 0 | 0 | 0 | 0 | 0 | 0 | 10 | 0 | 0 | 0 | 0 | 0 | 20 | 0 | 0 | 0
CN1C[C@@H](c2ccc(C(F)(F)F)cc2)[C@H](C(=O)Nc2ccno2)C1=O (racemic) [Compound 1513] | 0 | 0 | 0 | 0 | 0 | 0 | 0 | 0 | 0 | 0 | 0 | 0 | 0 | 0 | 0 | 0 | 0 | 0
CN1C[C@@H](c2ccc(C(F)(F)F)cc2)[C@H](C(=O)Nc2ncc(Br)cn2)C1=O (racemic) [Compound 1514] | 0 | 0 | 0 | 0 | 0 | 0 | 0 | 10 | 10 | 0 | 0 | 0 | 0 | 0 | 0 | 0 | 0 | 0
Cc1cscc1NC(=O)[C@@H]1C(=O)N(C)C[C@H]1c1ccc(C(F)(F)F)cc1 (racemic) [Compound 1526] | 0 | 20 | 60 | 0 | 0 | 60 | 0 | 10 | 10 | 0 | 10 | 20 | 0 | 0 | 0 | 0 | 0 | 10
